Article PMC6817881, “Antimalarial Quinoline Drugs Inhibit β-Hematin and Increase Free Hemin Catalyzing Peroxidative Reactions and Inhibition of Cysteine Proteases” (Scientific Reports, 2019)
Residues, ends and D or L forms follow the SMILES beside them. *: point of attachment. AMC = Cc1cc(=O)oc2cc(N*)ccc12; Cbz = O=C(OCc1ccccc1)*

Experiments:
papain = target: T1, papain (Carica papaya, UniProt P00784); test: RP-HPLC of released AMC; format: biochemical; details: pH 4.8 acetate, 37 °C, 100 µM substrate, cysteine; medium also held H2O2, hemin/chloroquine
T1 construct: native commercial enzyme (Sigma)
T1 sequence (P00784 134-345): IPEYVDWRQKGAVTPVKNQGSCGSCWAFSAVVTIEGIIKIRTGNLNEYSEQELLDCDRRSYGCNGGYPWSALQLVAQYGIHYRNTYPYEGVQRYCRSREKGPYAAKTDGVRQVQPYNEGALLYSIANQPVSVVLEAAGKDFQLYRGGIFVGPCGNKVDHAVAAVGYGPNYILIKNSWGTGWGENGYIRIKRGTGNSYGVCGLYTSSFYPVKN

cathepsin B = target: T2, cathepsin B (Bos taurus, UniProt P07688); test: RP-HPLC of released AMC; format: biochemical; details: 100 µM substrate, 37 °C, cysteine, globin, H2O2; hemin/chloroquine incubation medium
T2 construct: gene CTSB; native commercial enzyme from bovine spleen (Sigma)

## Cc1cc(=O)oc2cc(NC(=O)[C@H](CCCNC(=N)N)NC(=O)[C@H](Cc3ccccc3)NC(=O)OCc3ccccc3)ccc12 [Z-Phe-Arg-AMC] (Cbz-Phe-Arg-{AMC})
papain
  RP-HPLC of released AMC: papain, ficin and cathepsin-B using Z-Phe-Arg-AMC peptide
Cathepsin B
  RP-HPLC of released AMC: papain, ficin and cathepsin-B using Z-Phe-Arg-AMC peptide
